Test results reported in patent publication US20220295849A1, “Steviol Glycoside Compositions for Oral Ingestion or Use” (CARGILL, Incorporated, priority 2016, published 2022).
Blank lines part the entries; values can stand above or below the molecule they belong to.

Experiments:
[1] = literature; cited from earlier work
[2] = Equilibrium solubility (80° C. for 15 minutes, cooled to room temperature, observed up to 4 days); assay type: physicochemical; details: for equilibrium solubility (soluble/insoluble): 80° C. 15 minutes, then room temperature up to 4 days; for equilibrium solubility: heated to 80° C. for 15 minutes, room temperature, at least 4 days
Text: The composition can optionally be expressed in terms of the concentration of one or more steviol glycoside(s). Beneficially, it has been founds that compound(s) SG101-104 can improve solubility of steviol glycosides in an aqueous solution, and therefore compositions can be prepared having a greater concentration of steviol glycosides in solution. […] Clear solutions without precipitates are considered soluble. Unless indicated otherwise herein, the term “solubility” refers to “equilibrium solubility.” […]

[3] = literature; cited from earlier work; remark: listed apart in the source
[4] = Instantaneous solubility in deionized water at room temperature; assay type: physicochemical; details: for instantaneous solubility: water
Text: The composition can optionally be expressed in terms of the concentration of one or more steviol glycoside(s). Beneficially, it has been founds that compound(s) SG101-104 can improve solubility of steviol glycosides in an aqueous solution, and therefore compositions can be prepared having a greater concentration of steviol glycosides in solution. […] Clear solutions without precipitates are considered soluble. Unless indicated otherwise herein, the term “solubility” refers to “equilibrium solubility.”
Instantaneous solubility is determined by mixing steviol glycoside with deionized water vigorously for 10 minutes at room temperature. […] Clear solutions without precipitates are considered soluble.

[5] = Sensory evaluation (tasting) of glycoside solutions in reverse osmosis water, Test A and Test B; assay type: in vivo; details: for summary of sensory evaluation: summary of Example 5
Experimental: (§1) Glycoside samples (SG101-104) were isolated and purified from fermentation broth, purified Rebs A, B, and D are of leaf origin and Reb M is chemically synthesized. All samples were dissolved in reverse osmosis water at the concentrations indicated. Unsweetened black tea was used in one set of experiments. Approximately 2-3 milliliters of each solution was tasted and sensory evaluations conducted by two individuals. In one set of experiments a third individual also tasted.

[6] = Sensory evaluation (tasting) of glycoside solutions in unsweetened black tea, Test A; assay type: in vivo
Experimental: as §1

[7] = Sucrose equivalent value (SEV) in citric acid buffer; assay type: in vivo; details: for SEV: citric acid buffer at pH=3.0; for Sucrose equivalent value / relative sweetness scale-sucrose = 1: 250 ppm in citric buffer, pH = 3.0
Text: Sweetness may be determined by measuring sucrose equivalent values (SEV) using methods and processes well known to those skilled in the art. For example, SEV may be determined by measuring sweetness equivalence to a reference sucrose solution. Typically, taste panelists are trained to detect and scale sweetness of reference sucrose solutions containing between 10 g to 150 g/kg sucrose. A sweetener composition containing one or more glycosides are then tasted at a series of dilutions to determine the concentration of the sweetener composition that is as sweet as a given sucrose reference. For example, if a sweetener composition is as sweet as 50 g/kg of sucrose solution in a citric acid buffer at pH 3.1, then the sweetener composition is assigned a SEV of 5.
For example, SEVs for SG101 and SG102 at 200 ppm are 0.6 and 1.0, respectively; SEV=1.6 for SG101 at 500 ppm and SEV=1.2 at 400 ppm; and SEV=1.5 for SG102 at 400 ppm (as measured in a citric acid buffer at pH=3.0). Thus, at ppm<500, SG101 may be employed as a sensory modifier, and at ppm<400, SG102 may be employed as a sensory modifier in a beverage.

[8] = Test A, 200 ppm in water, three experienced taste testers
[9] = SG compound alone in tea, about 200 ppm (Table 7)

Structure (SMILES): C=C1C[C@@]23CC[C@H]4[C@@](C)(CCC[C@@]4(C)C(=O)O[C@@H]4O[C@H](CO)[C@@H](O)[C@H](O)[C@H]4O)[C@@H]2CC[C@]1(O[C@@H]1O[C@H](CO)[C@@H](O)[C@H](O[C@@H]2O[C@H](CO)[C@@H](O)[C@H](O)[C@H]2O)[C@H]1O[C@@H]1O[C@H](CO)[C@@H](O)[C@H](O)[C@H]1O)C3 [Reb A, rebaudioside A]
taste properties [1]: has off-taste issues

equilibrium solubility (soluble/insoluble) ([2]; 0.08%): soluble
equilibrium solubility (soluble/insoluble) ([2]; 0.10%): insoluble
equilibrium solubility (soluble/insoluble) ([2]; 0.15%): insoluble
equilibrium solubility (soluble/insoluble) ([2]; 0.20%): insoluble
equilibrium solubility [2]: 0.08%
instantaneous solubility (soluble/insoluble) ([4]; 0.08% in deionized water, clear solution without precipitates = soluble): insoluble
instantaneous solubility (soluble/insoluble) ([4]; 0.10% in deionized water): insoluble
instantaneous solubility (soluble/insoluble) ([4]; 0.15% in deionized water): insoluble
instantaneous solubility (soluble/insoluble) ([4]; 0.20% in deionized water): insoluble
instantaneous solubility [4]: < 0.08%
instantaneous solubility ([4]; listed as rebaudioside D): less than 0.08%
Structure (SMILES): C=C1C[C@@]23CC[C@H]4[C@@](C)(CCC[C@@]4(C)C(=O)O[C@@H]4O[C@H](CO)[C@@H](O)[C@H](O)[C@H]4O[C@@H]4O[C@H](CO)[C@@H](O)[C@H](O)[C@H]4O)[C@@H]2CC[C@]1(O[C@@H]1O[C@H](CO)[C@@H](O)[C@H](O[C@@H]2O[C@H](CO)[C@@H](O)[C@H](O)[C@H]2O)[C@H]1O[C@@H]1O[C@H](CO)[C@@H](O)[C@H](O)[C@H]1O)C3 [Reb D, rebaudioside D]
taste properties [1]: slow onset of sweetness and was very clean
times sweeter than sucrose [1]: 200-220 times
aqueous solubility [3]: low solubility in water at room temperature

equilibrium solubility (soluble/insoluble) ([2]; 0.10%): soluble
equilibrium solubility (soluble/insoluble) ([2]; 0.13%): soluble
equilibrium solubility (soluble/insoluble) ([2]; 0.20%): soluble
equilibrium solubility (soluble/insoluble) ([2]; 0.30%): insoluble
equilibrium solubility [2]: at least 0.2%
equilibrium solubility ([2]; listed as rebaudioside M): about 0.2%
instantaneous solubility (soluble/insoluble) ([4]; 0.10% in deionized water): soluble
instantaneous solubility (soluble/insoluble) ([4]; 0.13% in deionized water): soluble
instantaneous solubility (soluble/insoluble) ([4]; 0.20% in deionized water): insoluble
instantaneous solubility (soluble/insoluble) ([4]; 0.30% in deionized water): insoluble
instantaneous solubility [4]: at least 0.13%
instantaneous solubility ([4]; listed as rebaudioside M): about 0.13%
Structure (SMILES): C=C1C[C@@]23CC[C@H]4[C@@](C)(CCC[C@@]4(C)C(=O)O[C@@H]4O[C@H](CO)[C@@H](O)[C@H](O[C@@H]5O[C@H](CO)[C@@H](O)[C@H](O)[C@H]5O)[C@H]4O[C@@H]4O[C@H](CO)[C@@H](O)[C@H](O)[C@H]4O)[C@@H]2CC[C@]1(O[C@@H]1O[C@H](CO)[C@@H](O)[C@H](O[C@@H]2O[C@H](CO)[C@@H](O)[C@H](O)[C@H]2O)[C@H]1O[C@@H]1O[C@H](CO)[C@@H](O)[C@H](O)[C@H]1O)C3 [Reb M, rebaudioside M]
sensory comments [5, 8]: Typical mid-sweet for Reb M, fairly well rounded, quick rise, some tailing, some bitter
sensory comments ([5]; Test A, 400 ppm in water): Higher sweet, faster onset than 200 ppm, cotton candy sweetness—skews to HFCS longer linger, sharper bitterness—but not oppressing sweetness
sensory comments ([5]; Test B, Reb M alone in water, concentration not stated (200-398 ppm prepared)): clean, sweet, spiky sweetness
taste properties [1]: has higher sweetness intensity and is more potent than other steviol glycosides
aqueous solubility [3]: poor aqueous solubility and dissolution qualities in beverage formulations
sensory comments ([6]; Reb M alone in tea, concentration not stated (200.4 and 401.0 ppm prepared)): Nice subtle sweetness, feels like sugar, but with long linger very good

Structure (SMILES): C=C1C[C@@]23CCC4[C@](C)(C(=O)OC5OC(CO)C(O)C(O)C5OC5OC(CO)C(O)C(O)C5O)CCC[C@@]4(C)[C@@H]2CCC1(OC1OC(COC2OC(CO)C(O)C(O)C2O)C(O)C(OC2OC(CO)C(O)C(O)C2O)C1OC1OC(CO)C(O)C(O)C1O)C3 (stereo partly drawn) [SG101]
sensory comments [5, 8]: not sweet, astringent, cloying—mouth drying on the tongue
summary of sensory evaluation [5]: less sweet than SG103 and SG104
SEV ([7]; 200 ppm): 0.6
SEV ([7]; 400 ppm): 1.2
SEV ([7]; 500 ppm): 1.6
sensory comments [6, 9]: Zero sweetness, seems less than in water, naked tea

Structure (SMILES): C=C1C[C@@]23CCC4[C@](C)(C(=O)OC5OC(CO)C(O)C(OC6OC(CO)C(O)C(O)C6O)C5OC5OC(CO)C(O)C(O)C5O)CCC[C@@]4(C)[C@@H]2CCC1(OC1OC(COC2OC(CO)C(O)C(O)C2O)C(O)C(OC2OC(CO)C(O)C(O)C2O)C1OC1OC(CO)C(O)C(O)C1O)C3 (stereo partly drawn) [SG102]
sensory comments [5, 8]: a bit sweeter than 1-1, sweetness does have quick onset
summary of sensory evaluation [5]: less sweet than SG103 and SG104
SEV ([7]; 200 ppm): 1.0
SEV ([7]; 400 ppm): 1.5
sensory comments [6, 9]: Not sweet, slightly less astringent, some additional roundedness

Structure (SMILES): C=C1C[C@@]23CCC4[C@](C)(C(=O)OC5OC(CO)C(O)C(O)C5OC5OC(CO)C(O)C(O)C5O)CCC[C@@]4(C)[C@@H]2CCC1(OC1OC(CO)C(O)C(OC2OC(COC4OC(CO)C(O)C(O)C4O)C(O)C(O)C2O)C1OC1OC(CO)C(O)C(O)C1O)C3 (stereo partly drawn) [SG103]
sensory comments [5, 8]: as sweet or sweeter than 200 ppm Reb M, more sucrosey, sugary quality characteristics (high fructose corn syrup (HFCS), cotton candy notes) are reminiscent of Reb M at 400 ppm but not as sweet, “fuller” feeling
summary of sensory evaluation [5]: good sole sweeteners
Sucrose equivalent value [7]: 4.8
relative sweetness scale-sucrose = 1 [7]: 192X
sensory comments [6, 9]: Slower onset than Reb M by itself, not as sweet as Reb M, slightly more licorice aftertaste

Structure (SMILES): C=C1C[C@@]23CCC4[C@](C)(C(=O)OC5OC(CO)C(O)C(OC6OC(CO)C(O)C(O)C6O)C5OC5OC(CO)C(O)C(O)C5O)CCC[C@@]4(C)[C@@H]2CCC1(OC1OC(CO)C(O)C(OC2OC(COC4OC(CO)C(O)C(O)C4O)C(O)C(O)C2O)C1OC1OC(CO)C(O)C(O)C1O)C3 (stereo partly drawn) [SG104]
sensory comments [5, 8]: as sweet or sweeter than 200 ppm Reb M, more rounded sweetness, enhanced sugar quality effects (sensations reminiscent of sucrose, vanilla), “fuller” feeling
summary of sensory evaluation [5]: good sole sweeteners
Sucrose equivalent value [7]: 6.5
relative sweetness scale-sucrose = 1 [7]: 260X
sensory comments [6, 9]: As sweet as Reb M, very sucrosey compared to Reb M, a little back end licorice
